Assays:
Rattus norvegicus [1] = test: Cardiorenal effect in Sprague-Dawley rat assessed as urinary output level at 9.9 nmol/kg/hr dosed by continuous infusion via osmotic mini pumps […] (reference value: 1.3 mL/kg/hr); type: functional
Rattus norvegicus [2] = test: Cardiorenal effect in Sprague-Dawley rat assessed as water intake level at 9.9 nmol/kg/hr dosed by continuous infusion via osmotic mini pumps […] (reference value: 3.3 mL/kg/hr); type: functional
Rattus norvegicus [3] = test: Cardiorenal effect in Sprague-Dawley rat assessed as increase left ventricular fractional shortening at 9.9 nmol/kg/hr dosed by continuous infusion via osmotic mini pumps measured after 6 hrs by echocardiography relative to base line in sham treated control; type: functional
Rattus norvegicus [4] = test: Cardiorenal effect in Sprague-Dawley rat assessed as increase left ventricular fractional shortening at 9.9 nmol/kg/hr dosed by continuous infusion via osmotic mini pumps measured after 24 hrs by echocardiography relative to base line in sham treated control; type: functional
[5] = Cardiorenal effect in Sprague-Dawley rat assessed as reduction in blood pressure at 72 nmol/kg, iv […]; type: organism-based; conditions: in vivo
Apelin receptor [6] = molecular target: T1, Apelin receptor (Homo sapiens, UniProt P35414); test: Displacement of [125I] [NIe75, Tyr77]Pyr-apelin-13 from YFP-tagged human APJ receptor expressed in HEK293 cell membranes incubated for 1 hr by gamma counting based Cheng-Prusoff equation analysis
T1 sequence (P35414 whole entry): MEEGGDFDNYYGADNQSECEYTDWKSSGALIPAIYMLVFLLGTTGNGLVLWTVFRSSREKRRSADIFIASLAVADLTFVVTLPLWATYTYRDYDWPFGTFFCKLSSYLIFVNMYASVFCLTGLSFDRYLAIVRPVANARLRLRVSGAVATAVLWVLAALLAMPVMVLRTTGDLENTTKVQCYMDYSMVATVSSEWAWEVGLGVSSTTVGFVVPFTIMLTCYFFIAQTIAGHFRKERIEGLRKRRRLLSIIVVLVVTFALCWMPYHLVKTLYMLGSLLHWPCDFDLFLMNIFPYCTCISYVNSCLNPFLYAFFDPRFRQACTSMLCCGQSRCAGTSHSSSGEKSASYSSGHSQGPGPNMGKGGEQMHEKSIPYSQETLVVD

Apelin receptor [7] = molecular target: T1, Apelin receptor; test: Agonist activity at human APJ receptor expressed in HEK293 cells co-expressing Galpha(i1)-RlucII(91) assessed as induction of dissociation of Galpha(i1) from G-beta-gamma subunits incubated for 5 mins by BRET assay; type: cell-based
Apelin receptor [8] = molecular target: T1, Apelin receptor; test: Agonist activity at human APJ receptor expressed in HEK293T cells co-expressing PDZ-Rho-Gef-RLucll assessed as induction of Galpha12 effector (PDZ-RhoGEF) to the cell membrane incubated for 5 mins by BRET assay; type: functional, cell-based
Apelin receptor [9] = molecular target: T1, Apelin receptor; test: Agonist activity at human APJ receptor expressed in HEK293 cells co-expressing Rlucll-beta-arrestin2 assessed as induction of beta-arrestin2 recruitment to APJ incubated for 30 mins by BRET assay; type: cell-based
[10] = Cardiorenal effect in Sprague-Dawley rat assessed as reduction in blood pressure at 5 nmol/kg, iv […]; type: organism-based; conditions: in vivo

SMILES	Activity (Rattus norvegicus [1]) [mL/h/kg]	Activity (Rattus norvegicus [2]) [mL/h/kg]	Activity (Rattus norvegicus [3]) [%]	Activity (Rattus norvegicus [4]) [%]	Activity [5]	Ki (Apelin receptor [6]) [nM]	EC50 (Apelin receptor [7]) [nM]	EC50 (Apelin receptor [8]) [nM]	EC50 (Apelin receptor [9]) [nM]	Activity [10]
CCCC[C@H](N)C(=O)N1CCC[C@H]1C(=O)N[C@@H](CC(C)C)C(=O)N[C@@H](Cc1cnc[nH]1)C(=O)N[C@@H](CO)C(=O)N[C@@H](CCCNC(=N)N)C(=O)N[C@H](C(=O)N1CCC[C@H]1C(=O)N[C@@H](Cc1ccccc1)C(=O)N1CCC[C@H]1C(=O)O)C(C)C	2.7	4.5	11	19	Non-Toxic	–	–	–	–	–
CSCC[C@H](NC(=O)[C@@H](NC(=O)[C@H](CC(C)C)NC(=O)[C@H](CC(N)=O)NC(=O)[C@@H](NC(=O)[C@@H]1CCCN1C(=O)[C@H](CCCNC(=N)N)NC(=O)[C@@H]1CCC(=O)N1)C(C)C)[C@@H](C)O)C(=O)N[C@@H](C)C(=O)N[C@@H](CCCNC(=N)N)C(=O)N[C@@H](CCCCN)C(=O)N[C@@H](CC(C)C)C(=O)N[C@@H](CCCNC(=N)N)C(=O)N[C@@H](CCCCN)C(=O)N[C@@H](Cc1cnc[nH]1)C(=O)N[C@@H](CC(N)=O)C(=O)N[C@H]1CSSC[C@@H](C(=O)N[C@@H](CCSC)C(=O)N2CCC[C@H]2C(=O)N[C@@H](CC(C)C)C(=O)N[C@@H](Cc2cnc[nH]2)C(=O)N[C@@H](CO)C(=O)N[C@@H](CCCNC(=N)N)C(=O)N[C@H](C(=O)N2CCC[C@H]2C(=O)N[C@@H](Cc2ccccc2)C(=O)N2CCC[C@H]2C(=O)O)C(C)C)NC(=O)[C@H](CCCNC(=N)N)NC(=O)[C@H](CCCNC(=N)N)NC(=O)[C@H](CCC(N)=O)NC(=O)[C@H](CC(C)C)NC1=O	3.5	5	18	27	–	0.19	5.3	25	45	<= 40 mmHg
